Experiments:
human GPR139 receptor [1] = biological target: T1, human GPR139 receptor (Homo sapiens, UniProt Q6DWJ6); experiment: GPR139 Competition Binding (membrane-based, tritium-labeled ligand); settings: T-REx-CHO membranes with human GPR139; 6.5 nM tritium-labeled ligand; 11-point curve, 30 μM maximum concentration; read-out: GPR139 Binding Affinity (pKi) (converted)
T1 construct: expressed in transfected cells; host or cells: T-REx-CHO (Thermo Fisher Scientific), doxycycline-induced
T1 sequence (Q6DWJ6 1-353): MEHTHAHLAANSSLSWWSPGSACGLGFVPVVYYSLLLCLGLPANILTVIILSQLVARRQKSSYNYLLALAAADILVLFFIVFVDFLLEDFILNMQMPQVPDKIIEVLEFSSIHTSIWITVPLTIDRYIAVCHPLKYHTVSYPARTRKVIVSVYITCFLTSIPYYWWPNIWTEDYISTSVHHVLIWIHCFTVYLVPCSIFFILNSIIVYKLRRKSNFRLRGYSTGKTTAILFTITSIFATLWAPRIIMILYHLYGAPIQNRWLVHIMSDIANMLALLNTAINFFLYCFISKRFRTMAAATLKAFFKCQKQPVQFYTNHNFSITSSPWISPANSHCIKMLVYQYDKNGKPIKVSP
Procedure, shortened: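 Membranes came from doxycycline-induced T-REx-CHO cells expressing human GPR139. They were incubated 20 min at room temperature with 6.5 nM tritiated ligand and compound (11 points, top 30 μM) in HEPES pH 7.3 buffer with MgCl2/CaCl2. Filter-bound counts gave Ki by four-parameter fit, reported as pKi.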

human GPR139 receptor [2] = biological target: T1, human GPR139 receptor; experiment: Measurement of GPR139 Activation Via Calcium Signaling (FLIPR, T-REx-CHO cells); assay type: cell-based; settings: T-REx-CHO cells stably expressing human GPR139, 11-point dose response, 10 μM maximum concentration, read-out: GPR139 Potency (pEC50) (converted)
Procedure, shortened: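 T-REx-CHO cells stably carrying human GPR139 under tetracycline control, induced with 2 μg/mL doxycycline for 17 h at 37 °C, loaded 40 min with Calcium 5 dye plus probenecid in HBSS/HEPES pH 7.4. Agonist added as 11-point series (10 μM top); fluorescence read 1 min; pEC50 from four-parameter fit.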

Row | SMILES | Ki (human GPR139 receptor [1]) [nM] | EC50 (human GPR139 receptor [2]) [nM]
1 | C[C@H](NC(=O)Cn1ncc2c(C3CC3)nn(C)c2c1=O)c1ccc(C(F)(F)F)cc1 [Example 142, (S)-2-(3-cyclopropyl-1-methyl-7-oxo-1,7-dihydro-6H-pyrazolo[3,4-d]pyridazin-6-yl)-N-(1-(4-(trifluoromethyl)phenyl)ethyl)acetamide] | 229 | 95.5
2 | COc1ccc([C@H](C)NC(=O)Cn2nc(C)c3c(c(C(C)C)nn3C)c2=O)cc1F [Example 10, (S)—N-(1-(3-fluoro-4-methoxyphenyl)ethyl)-2-(3-isopropyl-1,7-dimethyl-4-oxo-1H-pyrazolo[3,4-d]pyridazin-5(4H)-yl)acetamide] | 120 | 79.4
3 | Cc1nn(C)c2c(=O)n(CC(=O)N[C@@H](C)c3ccc(C(F)(F)F)cn3)ncc12 [Example 60, (S)-2-(1,3-dimethyl-7-oxo-1,7-dihydro-6H-pyrazolo[3,4-d]pyridazin-6-yl)-N-(1-(5-(trifluoromethyl)pyridin-2-yl)ethyl)acetamide] | 30200 | 214
4 | COc1ccc([C@H](C)NC(=O)Cn2ncc3c(c(C)nn3C(C)C)c2=O)cc1 [Example 17, (S)-2-(1-isopropyl-3-methyl-4-oxo-1,4-dihydro-5H-pyrazolo[3,4-d]pyridazin-5-yl)-N-(1-(4-methoxyphenyl)ethyl)acetamide] | 2950 | 57.5
5 | C[C@H](NC(=O)Cn1ncc2c(C3CC3)nn(C)c2c1=O)c1c(F)cccc1Cl [Example 150, (S)—N-(1-(2-chloro-6-fluorophenyl)ethyl)-2-(3-cyclopropyl-1-methyl-7-oxo-1,7-dihydro-6H-pyrazolo[3,4-d]pyridazin-6-yl)acetamide] | 77.6 | 47.9
6 | Cc1ccc([C@H](C)NC(=O)Cn2nc(C)c3c(cnn3C3CC3)c2=O)c(F)c1 [Example 81, (S)-2-(1-cyclopropyl-7-methyl-4-oxo-1,4-dihydro-5H-pyrazolo[3,4-d]pyridazin-5-yl)-N-(1-(2-fluoro-4-methylphenyl)ethyl)acetamide] | 331 | 145
7 | Cc1nn(CC(=O)N[C@@H](C)c2ccc(C(F)(F)F)cc2)c(=O)c2cnn(C)c12 [Example 72, (S)-2-(1,7-dimethyl-4-oxo-1,4-dihydro-5H-pyrazolo[3,4-d]pyridazin-5-yl)-N-(1-(4-(trifluoromethyl)phenyl)ethyl)acetamide] | 1910 | 55
8 | CC(C)c1nn(C)c2cnn(CC(=O)N[C@@H](C)c3ccc(C(F)(F)F)cc3)c(=O)c12 [Example 52, (S)-2-(3-isopropyl-1-methyl-4-oxo-1,4-dihydro-5H-pyrazolo-[3,4-d]pyridazin-5-yl)-N-(1-(4-(trifluoromethyl)phenyl)ethyl)acetamide] | 204 | 67.6
9 | Cc1nn(C2CCC2)c2cnn(CC(=O)N[C@@H](C)c3ccc(C(F)(F)F)cc3)c(=O)c12 [Example 155, (S)-2-(1-cyclobutyl-3-methyl-4-oxo-1,4-dihydro-5H-pyrazolo[3,4-d]pyridazin-5-yl)-N-(1-(4-(trifluoromethyl)phenyl)ethyl)acetamide] | 178 | 87.1
10 | Cc1nn(C)c2cnn(CC(=O)N[C@@H](C)c3c(F)cccc3F)c(=O)c12 [Example 126, (S)—N-(1-(2,6-difluorophenyl)ethyl)-2-(1,3-dimethyl-4-oxo-1,4-dihydro-5H-pyrazolo[3,4-d]pyridazin-5-yl)acetamide] | 955 | 324
11 | Cc1ccc([C@H](C)NC(=O)Cn2nc(C)c3c(c(C)nn3C)c2=O)c(F)c1 [Example 111, (S)—N-(1-(2-fluoro-4-methylphenyl)ethyl)-2-(1,3,7-trimethyl-4-oxo-1,4-dihydro-5H-pyrazolo[3,4-d]pyridazin-5-yl)acetamide] | 42.7 | 148
12 | Cc1ccc([C@H](C)NC(=O)Cn2nc(C(C)C)c3cnn(C(C)(C)C)c3c2=O)cc1 [Example 11, (S)-2-(1-(tert-butyl)-4-isopropyl-7-oxo-1,7-dihydro-6H-pyrazolo[3,4-d]pyridazin-6-yl)-N-(1-(p-tolyl)ethyl)acetamide] | 107 | 2750
13 | Cc1ccc([C@H](C)NC(=O)Cn2nc(C(C)C)c3cnn(-c4ccccc4)c3c2=O)c(F)c1 [Example 8, (S)—N-(1-(2-fluoro-4-methylphenyl)ethyl)-2-(4-isopropyl-7-oxo-1-phenyl-1,7-dihydro-6H-pyrazolo[3,4-d]pyridazin-6-yl)acetamide] | 27.5 | ≥ 10000
14 | C[C@H](NC(=O)Cn1ncc2c(C3CC3)nn(C)c2c1=O)c1cccc(F)c1 [Example 148, (S)-2-(3-cyclopropyl-1-methyl-7-oxo-1,7-dihydro-6H-pyrazolo[3,4-d]pyridazin-6-yl)-N-(1-(3-fluorophenyl)ethyl)acetamide] | 589 | 20
15 | Cc1ccc([C@H](C)NC(=O)Cn2ncc3ncn(C)c3c2=O)cc1 [Example 138, (S)-2-(3-methyl-4-oxo-3,4-dihydro-5H-imidazo[4,5-d]pyridazin-5-yl)-N-(1-(p-tolyl)ethyl)acetamide] | 30200 | 363
16 | C[C@H](NC(=O)Cn1ncc2c(C3CC3)cn(C)c2c1=O)c1ccc(C(F)(F)F)cc1 [Example 159, (S)-2-(3-cyclopropyl-1-methyl-7-oxo-1,7-dihydro-6H-pyrrolo[2,3-d]pyridazin-6-yl)-N-(1-(4-(trifluoromethyl)phenyl)ethyl)acetamide] | 79.4 | 100
17 | COc1ccc([C@H](C)NC(=O)Cn2ncc3c(c(C4CC4)nn3C(C)C)c2=O)cc1 [Example 18, (S)-2-(3-cyclopropyl-1-isopropyl-4-oxo-1,4-dihydro-5H-pyrazolo[3,4-d]pyridazin-5-yl)-N-(1-(4-methoxyphenyl)ethyl)acetamide] | 355 | 170
18 | Cc1nn(C2CC2)c2cnn(CC(=O)N[C@@H](C)c3cccc(F)c3)c(=O)c12 [Example 25, (S)-2-(1-cyclopropyl-3-methyl-4-oxo-1,4-dihydro-5H-pyrazolo[3,4-d]pyridazin-5-yl)-N-(1-(3-fluorophenyl)ethyl)acetamide] | 617 | 23.4
19 | Cc1nn(CC(=O)N[C@@H](C)c2ccc(C(F)(F)F)cn2)c(=O)c2c1c(C)nn2C(C)C [Example 59, (S)-2-(1-isopropyl-3,4-dimethyl-7-oxo-1,7-dihydro-6H-pyrazolo[3,4-d]pyridazin-6-yl)-N-(1-(5-(trifluoromethyl)pyridin-2-yl)ethyl)acetamide] | 741 | 347
20 | Cc1ccc([C@H](C)NC(=O)Cn2ncc3c(ncn3C)c2=O)cc1 [Example 140, (S)-2-(1-methyl-4-oxo-1,4-dihydro-5H-imidazo[4,5-d]pyridazin-5-yl)-N-(1-(p-tolyl)ethyl)acetamide] | 30200 | 525
21 | Cc1ccc([C@H](C)NC(=O)Cn2ncc3c(c(C(F)(F)F)nn3C)c2=O)cc1F [Example 171, (S)—N-(1-(3-fluoro-4-methylphenyl)ethyl)-2-(1-methyl-4-oxo-3-(trifluoromethyl)-1,4-dihydro-5H-pyrazolo[3,4-d]pyridazin-5-yl)acetamide] | 24 | 41.7
22 | COc1ccc([C@H](C)NC(=O)Cn2ncc3c(c(C(C)C)nn3C)c2=O)cc1 [Example 53, (S)-2-(3-isopropyl-1-methyl-4-oxo-1,4-dihydro-5H-pyrazolo[3,4-d]pyridazin-5-yl)-N-(1-(4-methoxyphenyl)ethyl)acetamide] | 1020 | 55
23 | [2H]C([2H])([2H])c1ccc([C@H](C)NC(=O)Cn2ncc3c(cnn3C(C)C)c2=O)cc1 [Example 166, (S)-2-(1-isopropyl-4-oxo-1,4-dihydro-5H-pyrazolo[3,4-d]pyridazin-5-yl)-N-(1-(4-(methyl-d3)phenyl)ethyl)acetamide] | 2340 | 53.7
24 | C[C@H](NC(=O)Cn1nc(C2CC2)c2cnn(-c3ccccc3)c2c1=O)c1ccc(OC(F)(F)F)cc1 [Example 45, (S)-2-(4-cyclopropyl-7-oxo-1-phenyl-1,7-dihydro-6H-pyrazolo[3,4-d]pyridazin-6-yl)-N-(1-(4-(trifluoromethoxy)phenyl)ethyl)acetamide] | 224 | ≥ 10000
25 | Cc1ccc([C@H](C)NC(=O)Cn2nc(C)c3cnn(C(C)(C)C)c3c2=O)cc1 [Example 13, (S)-2-(1-(tert-butyl)-4-methyl-7-oxo-1,7-dihydro-6H-pyrazolo[3,4-d]pyridazin-6-yl)-N-(1-(p-tolyl)ethyl)acetamide] | 20.9 | 102
26 | Cc1nn(C2CC2)c2cnn(CC(=O)N[C@@H](C)c3ccc(C(F)(F)F)cn3)c(=O)c12 [Example 32] | 30200 | 617
27 | Cc1ccc([C@H](C)NC(=O)Cn2ncc3c(C4CC4)nn(C)c3c2=O)c(F)c1 [Example 152, (S)-2-(3-cyclopropyl-1-methyl-7-oxo-1,7-dihydro-6H-pyrazolo[3,4-d]pyridazin-6-yl)-N-(1-(2-fluoro-4-methylphenyl)ethyl)acetamide] | 110 | 28.8
